Test results as given in PubChem BioAssay (NCI).
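Dose response: 5 concentrations. Exposure: 48 h. Format: 96-well plates. Endpoint: linear interpolation; highest concentration if not reached. Here, GI50 denotes the concentration required for 50% inhibition of growth. TGI is the concentration that stops growth completely.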

Columns and labels:
Assay in all cases: DTP human tumour cell line panel, 48 h
786-0 renal = system: 786-0 renal
A498 renal = system: A498 renal
A549 NSCLC = system: A549 NSCLC
ACHN renal = system: ACHN renal
CAKI-1 renal = system: CAKI-1 renal
CCRF-CEM leukemia = system: CCRF-CEM leukemia
COLO 205 colon = system: COLO 205 colon
DU-145 prostate = system: DU-145 prostate
EKVX NSCLC = system: EKVX NSCLC
HCC-2998 colon = system: HCC-2998 colon
HCT-116 colon = system: HCT-116 colon
HCT-15 colon = system: HCT-15 colon
HL-60(TB) leukemia = system: HL-60(TB) leukemia
HOP-62 NSCLC = system: HOP-62 NSCLC
HOP-92 NSCLC = system: HOP-92 NSCLC
HS 578T breast = system: HS 578T breast
HT29 colon = system: HT29 colon
IGROV1 ovarian = system: IGROV1 ovarian
K-562 leukemia = system: K-562 leukemia
KM12 colon = system: KM12 colon
LOX IMVI melanoma = system: LOX IMVI melanoma
M14 melanoma = system: M14 melanoma
MALME-3M melanoma = system: MALME-3M melanoma
MDA-MB-231 breast = system: MDA-MB-231 breast
MDA-MB-435 = system: MDA-MB-435
MDA-N = system: MDA-N
MOLT-4 leukemia = system: MOLT-4 leukemia
NCI-H226 lung = system: NCI-H226 lung
NCI-H23 lung = system: NCI-H23 lung
NCI-H460 lung = system: NCI-H460 lung
NCI-H522 lung = system: NCI-H522 lung
NCI/ADR-RES ovarian = system: NCI/ADR-RES ovarian
OVCAR-3 ovarian = system: OVCAR-3 ovarian
OVCAR-4 ovarian = system: OVCAR-4 ovarian
OVCAR-5 ovarian = system: OVCAR-5 ovarian
OVCAR-8 ovarian = system: OVCAR-8 ovarian
PC-3 prostate = system: PC-3 prostate
RXF 393 renal = system: RXF 393 renal
SF-268 CNS = system: SF-268 CNS
SF-295 CNS = system: SF-295 CNS
SF-539 CNS = system: SF-539 CNS
SK-MEL-2 melanoma = system: SK-MEL-2 melanoma
SK-MEL-28 melanoma = system: SK-MEL-28 melanoma
SK-MEL-5 melanoma = system: SK-MEL-5 melanoma
SK-OV-3 ovarian = system: SK-OV-3 ovarian
SN12C renal = system: SN12C renal
SNB-19 CNS = system: SNB-19 CNS
SNB-75 CNS = system: SNB-75 CNS
SR leukemia = system: SR leukemia
SW-620 colon = system: SW-620 colon
T-47D breast = system: T-47D breast
TK-10 renal = system: TK-10 renal
U251 CNS = system: U251 CNS
UACC-257 melanoma = system: UACC-257 melanoma
UACC-62 melanoma = system: UACC-62 melanoma
UO-31 renal = system: UO-31 renal
MCF7 breast = system: MCF7 breast
RPMI-8226 leukemia = system: RPMI-8226 leukemia

**Q.** How did the TGI (786-0 renal) turn out when `CCCc1cc2c(cc1O)CC[C@@H]1[C@@H]2CC[C@]2(C)[C@@H](O)CC[C@@H]12` was run?
**A.** Its TGI is 26.6 µM.

**Q.** What about the TGI (A498 renal) of the same compound?
**A.** Its TGI is 32.3 µM.

**Q.** What about the TGI (A549 NSCLC) of the same compound?
**A.** The TGI was 22.9 µM.

**Q.** What about the TGI (ACHN renal) of the same compound?
**A.** Its TGI is 25.6 µM.

**Q.** And the TGI (CAKI-1 renal)?
**A.** Its TGI is 24.8 µM.

**Q.** What about the TGI (CCRF-CEM leukemia) of the same compound?
**A.** The TGI was 20.9 µM.

**Q.** And the TGI (COLO 205 colon)?
**A.** Its TGI is 34.5 µM.

**Q.** And the GI50 (DU-145 prostate)?
**A.** The GI50 was 18.8 µM.

**Q.** What about the TGI (DU-145 prostate) of the same compound?
**A.** Its TGI is 32.8 µM.

**Q.** What about the TGI (EKVX NSCLC) of the same compound?
**A.** The TGI was 26.2 µM.

**Q.** And the TGI (HCC-2998 colon)?
**A.** Its TGI is 33 µM.

**Q.** And the GI50 (HCT-116 colon)?
**A.** Its GI50 is 6.54 µM.

**Q.** And the TGI (HCT-116 colon)?
**A.** Its TGI is 19.8 µM.

**Q.** What about the TGI (HCT-15 colon) of the same compound?
**A.** The TGI was 18.1 µM.

**Q.** What about the TGI (HL-60(TB) leukemia) of the same compound?
**A.** The TGI was 29.7 µM.

**Q.** What about the GI50 (HOP-62 NSCLC) of the same compound?
**A.** Its GI50 is 16 µM.

**Q.** And the TGI (HOP-62 NSCLC)?
**A.** The TGI was 34.2 µM.

**Q.** What about the TGI (HOP-92 NSCLC) of the same compound?
**A.** The TGI was 33.6 µM.

**Q.** What about the TGI (HS 578T breast) of the same compound?
**A.** The TGI was 32.3 µM.

**Q.** And the TGI (HT29 colon)?
**A.** The TGI was 31.1 µM.

**Q.** And the TGI (IGROV1 ovarian)?
**A.** The TGI was 30.2 µM.

**Q.** What about the TGI (K-562 leukemia) of the same compound?
**A.** Its TGI is 13.6 µM.

**Q.** And the TGI (KM12 colon)?
**A.** Its TGI is 22.6 µM.

**Q.** What about the TGI (LOX IMVI melanoma) of the same compound?
**A.** The TGI was 24 µM.

**Q.** And the TGI (M14 melanoma)?
**A.** Its TGI is 23 µM.

**Q.** What about the TGI (MALME-3M melanoma) of the same compound?
**A.** Its TGI is 27.9 µM.

**Q.** And the TGI (MDA-MB-231 breast)?
**A.** Its TGI is 40.8 µM.

**Q.** And the GI50 (MDA-MB-435)?
**A.** The GI50 was 2.19 µM.

**Q.** And the TGI (MDA-MB-435)?
**A.** Its TGI is 5.1 µM.

**Q.** What about the TGI (MDA-N) of the same compound?
**A.** Its TGI is 6.05 µM.

**Q.** What about the TGI (MOLT-4 leukemia) of the same compound?
**A.** The TGI was 20.4 µM.

**Q.** What about the TGI (NCI-H226 lung) of the same compound?
**A.** The TGI was 27.5 µM.

**Q.** And the TGI (NCI-H23 lung)?
**A.** The TGI was 29.2 µM.

**Q.** What about the TGI (NCI-H460 lung) of the same compound?
**A.** The TGI was 24.4 µM.

**Q.** And the TGI (NCI-H522 lung)?
**A.** Its TGI is 24.9 µM.

**Q.** What about the TGI (NCI/ADR-RES ovarian) of the same compound?
**A.** The TGI was 27.1 µM.

**Q.** And the TGI (OVCAR-3 ovarian)?
**A.** Its TGI is 24.4 µM.

**Q.** And the TGI (OVCAR-4 ovarian)?
**A.** The TGI was 32.7 µM.

**Q.** And the TGI (OVCAR-5 ovarian)?
**A.** The TGI was 34.7 µM.

**Q.** What about the TGI (OVCAR-8 ovarian) of the same compound?
**A.** The TGI was 29.1 µM.

**Q.** What about the TGI (PC-3 prostate) of the same compound?
**A.** Its TGI is 34.5 µM.

**Q.** What about the TGI (RXF 393 renal) of the same compound?
**A.** The TGI was 22.1 µM.

**Q.** What about the TGI (SF-268 CNS) of the same compound?
**A.** The TGI was 28.6 µM.

**Q.** What about the TGI (SF-295 CNS) of the same compound?
**A.** Its TGI is 17.8 µM.

**Q.** What about the TGI (SF-539 CNS) of the same compound?
**A.** Its TGI is 24.4 µM.

**Q.** And the TGI (SK-MEL-2 melanoma)?
**A.** Its TGI is 30.2 µM.

**Q.** What about the TGI (SK-MEL-28 melanoma) of the same compound?
**A.** Its TGI is 25.8 µM.

**Q.** And the TGI (SK-MEL-5 melanoma)?
**A.** Its TGI is 22.4 µM.

**Q.** What about the TGI (SK-OV-3 ovarian) of the same compound?
**A.** Its TGI is 29.1 µM.

**Q.** And the TGI (SN12C renal)?
**A.** Its TGI is 24.7 µM.

**Q.** What about the TGI (SNB-19 CNS) of the same compound?
**A.** The TGI was 26.3 µM.

**Q.** What about the TGI (SNB-75 CNS) of the same compound?
**A.** Its TGI is 29.3 µM.

**Q.** What about the TGI (SR leukemia) of the same compound?
**A.** The TGI was 13.4 µM.

**Q.** What about the TGI (SW-620 colon) of the same compound?
**A.** Its TGI is 17.2 µM.

**Q.** What about the TGI (T-47D breast) of the same compound?
**A.** Its TGI is 32.6 µM.

**Q.** What about the TGI (TK-10 renal) of the same compound?
**A.** Its TGI is 30.1 µM.

**Q.** What about the TGI (U251 CNS) of the same compound?
**A.** The TGI was 20.3 µM.

**Q.** And the TGI (UACC-257 melanoma)?
**A.** The TGI was 25.8 µM.

**Q.** What about the GI50 (UACC-62 melanoma) of the same compound?
**A.** The GI50 was 6.02 µM.

**Q.** What about the TGI (UACC-62 melanoma) of the same compound?
**A.** The TGI was 19.4 µM.

**Q.** What about the TGI (UO-31 renal) of the same compound?
**A.** Its TGI is 24.6 µM.

**Q.** What does the source list for `Cc1cc2c(c(C)c1O)C(C)(C)CN2C(=O)C(C)(C)C`?
**A.** TGI (786-0 renal): > 100 µM; TGI (A498 renal): > 100 µM; TGI (A549 NSCLC): > 100 µM; TGI (ACHN renal): > 100 µM; TGI (CCRF-CEM leukemia): > 100 µM; TGI (COLO 205 colon): > 100 µM; TGI (DU-145 prostate): > 100 µM; TGI (EKVX NSCLC): > 100 µM; TGI (HCC-2998 colon): > 100 µM; TGI (HCT-116 colon): > 100 µM; TGI (HCT-15 colon): > 100 µM; TGI (HL-60(TB) leukemia): > 100 µM; TGI (HOP-62 NSCLC): > 100 µM; TGI (HOP-92 NSCLC): 78.5 µM; TGI (HS 578T breast): > 100 µM; TGI (HT29 colon): > 100 µM; TGI (IGROV1 ovarian): > 100 µM; TGI (K-562 leukemia): > 100 µM; TGI (KM12 colon): > 100 µM; TGI (LOX IMVI melanoma): > 100 µM; TGI (M14 melanoma): > 100 µM; TGI (MCF7 breast): > 100 µM; TGI (MDA-MB-231 breast): > 100 µM; TGI (MDA-MB-435): > 100 µM; TGI (MDA-N): > 100 µM; TGI (MOLT-4 leukemia): > 100 µM; TGI (NCI-H226 lung): > 100 µM; TGI (NCI-H23 lung): > 100 µM; TGI (NCI-H460 lung): > 100 µM; TGI (NCI-H522 lung): > 100 µM; TGI (NCI/ADR-RES ovarian): 41.2 µM; TGI (OVCAR-3 ovarian): 28.3 µM; TGI (OVCAR-4 ovarian): > 100 µM; TGI (OVCAR-5 ovarian): > 100 µM; TGI (OVCAR-8 ovarian): > 100 µM; TGI (PC-3 prostate): > 100 µM; TGI (RPMI-8226 leukemia): > 100 µM; TGI (RXF 393 renal): 86.9 µM; TGI (SF-268 CNS): > 100 µM; TGI (SF-295 CNS): > 100 µM; TGI (SF-539 CNS): > 100 µM; TGI (SK-MEL-28 melanoma): > 100 µM; TGI (SK-MEL-5 melanoma): > 100 µM; TGI (SK-OV-3 ovarian): > 100 µM; TGI (SN12C renal): > 100 µM; TGI (SNB-19 CNS): > 100 µM; TGI (SNB-75 CNS): 89.2 µM; TGI (SW-620 colon): > 100 µM; TGI (T-47D breast): > 100 µM; TGI (TK-10 renal): > 100 µM; TGI (U251 CNS): > 100 µM; TGI (UACC-257 melanoma): > 100 µM; TGI (UACC-62 melanoma): > 100 µM; TGI (UO-31 renal): > 100 µM
